Key:
[1] = test system: HCT116 WT cells; experiment: HCT116 WT cell proliferation / viability (CellTiter-Glo, 6 days); format: cell-based; settings: Homo sapiens, HCT-116, 144 h, HCT116 WT cells, 6 days, CellTiter-Glo; read-out: HCT-116 WT IC50
Method in brief: (§1)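 IC50 values derive from sigmoidal dose-response fits, some with Hill slope fixed at −1 and top constrained to 100%, others from 4-parameter logistic models. They reflect CellTiter-Glo viability after 6 days of compound exposure at up to 10 or 50 μM.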

[2] = test system: HCT116 MTAP null cells; experiment: HCT116 MTAP null cell proliferation / viability (CellTiter-Glo, 6 days); format: cell-based; settings: HCT116-MTAP null, 144 h, HCT116 MTAP null cells, 6 days, CellTiter-Glo; read-out: HCT-116 MTAP null IC50
Method in brief: as §1

Structure (SMILES) | IC50 [1] [nM] | IC50 [2] [nM]
CN(Cc1ccc(S(F)(F)(F)(F)F)cc1)C(=O)c1ccc2nc(N)c3cnn(C)c3c2c1 [Example 573, 4-amino-N,1-dimethyl-N-(4-(pentafluoro-lambda~6~- sulfanyl)benzyl)-1H-pyrazolo[4,3-c]quinoline-8-carboxamide] | 3730 | 85
CN(Cc1ccc(S(F)(F)(F)(F)F)cc1O)C(=O)c1cc2c3c(c(N)nc2cc1F)COC3 [Example 576, 4-amino-7-fluoro-N-(2-hydroxy-4-(pentafluoro-lambda~6~- sulfanyl)benzyl)-N-methyl-1,3-dihydrofuro[3,4-c]quinoline-8-carboxamide] | 2080 | 107
C[C@H](c1ccc(F)cn1)N(C)C(=O)c1cc2c(cc1Cl)nc(N)c1cnn(C)c12 [Example 593, 4-amino-7-chloro-N-((1R)-1-(5-fluoro-2-pyridinyl)ethyl)-N,1-dimethyl-1H-pyrazolo[4,3-c]quinoline-8-carboxamide] | 908 | 12
C[C@H](c1ncccn1)N(Cc1ccc(C#N)cn1)C(=O)c1cc2c3c(c(N)nc2cn1)COC3 [Example 606, (R)-4-amino-N-((5-cyanopyridin-2-yl)methyl)-N-(1-(pyrimidin-2-yl)ethyl)-1,3-dihydrofuro[3,4-c][1,7]naphthyridine-8-carboxamide] | 3700 | 263
CC(C)CN(Cc1ccc(C(F)(F)F)cn1)C(=O)c1cnc2nc(N)c3c(c2c1)CCC3 [Example 607, 6-amino-N-isobutyl-N-((5-(trifluoromethyl)pyridin-2-yl)methyl)-8,9-dihydro-7H-cyclopenta[c][1,8]naphthyridine-2-carboxamide] | 1370 | 154
C[C@H](c1ncccn1)N(Cc1ccc(C(F)(F)F)cn1)C(=O)c1ccc2nc(N)c3c(c2c1)CCC3 [Example 610, 4-amino-N-((1R)-1-(2-pyrimidinyl)ethyl)-N-((5-(trifluoromethyl)-2-pyridinyl)methyl)-2,3-dihydro-1H-cyclopenta[c]quinoline-8-carboxamide] | 135 | 6
CC(C)CN(Cc1ccc(C(F)(F)F)cn1)C(=O)c1ccc2nc(N)c3c(c2c1)CCC3 [Example 611, 4-amino-N-(2-methylpropyl)-N-((5-(trifluoromethyl)-2-pyridinyl)methyl)-2,3-dihydro-1H-cyclopenta[c]quinoline-8-carboxamide] | 474 | 84
C[C@H](c1ncccn1)N(Cc1ccc(C(F)(F)F)cn1)C(=O)c1cnc2nc(N)c3c(c2c1)COC3 [Example 614, 4-amino-N-((1R)-1-(2-pyrimidinyl)ethyl)-N-((5-(trifluoromethyl)-2-pyridinyl)methyl)-1,3-dihydrofuro[3,4-c][1,8]naphthyridine-8-carboxamide] | 255 | 42
Cc1noc2c1c(N)nc1ccc(C(=O)N(Cc3ccc(C(F)(F)F)cn3)CC(C)C)cc12 [Example 617, 4-amino-3-methyl-N-(2-methylpropyl)-N-((5-(trifluoromethyl)-2-pyridinyl)methyl)[1,2]oxazolo[4,5-c]quinoline-8-carboxamide] | > 10000 | 245
CC(C)CN(Cc1ccc(C(F)(F)F)cn1)C(=O)c1cc2c3c(c(N)nc2cn1)COC3 [Example 620, 4-amino-N-(2-methylpropyl)-N-((5-(trifluoromethyl)-2-pyridinyl)methyl)-1,3-dihydrofuro[3,4-c][1,7]naphthyridine-8-carboxamide] | 3560 | 77
C[C@H](c1ncccn1)N(Cc1ccc(C(F)(F)F)cn1)C(=O)c1cc2c3c(c(N)nc2cn1)COC3 [Example 621, 4-amino-N-((1R)-1-(2-pyrimidinyl)ethyl)-N-((5-(trifluoromethyl)-2-pyridinyl)methyl)-1,3-dihydrofuro[3,4-c][1,7]naphthyridine-8-carboxamide] | 1230 | 108
C[C@H](c1ncccn1)N(Cc1ccc(C(F)F)cn1)C(=O)c1ccc2nc(N)c3c(c2c1)CCC3 [Example 623, 4-amino-N-((5-(difluoromethyl)-2-pyridinyl)methyl)-N-((1R)-1-(2-pyrimidinyl)ethyl)-2,3-dihydro-1H-cyclopenta[c]quinoline-8-carboxamide] | 148 | 15
C[C@H](c1ncccc1F)N(Cc1ccc(Br)nn1)C(=O)c1ccc2nc(N)c3c(c2c1)CCC3 [Example 624, 4-amino-N-((6-bromo-3-pyridazinyl)methyl)-N-((1R)-1-(3-fluoro-2-pyridinyl)ethyl)-2,3-dihydro-1H-cyclopenta[c]quinoline-8-carboxamide] | 189 | 21
C[C@H](c1ncccn1)N(Cc1ccc(C(F)F)cn1)C(=O)c1cnc2nc(N)c3c(c2c1)CCC3 [Example 625, 6-amino-N-((5-(difluoromethyl)-2-pyridinyl)methyl)-N-((1R)-1-(2-pyrimidinyl)ethyl)-8,9-dihydro-7H-cyclopenta[c][1,8]naphthyridine-2-carboxamide] | 1590 | 130

Other lines, results leading:

IC50 [1] [nM] | IC50 [2] [nM] | Structure (SMILES)
878 | 25 | CN(Cc1ccc(S(F)(F)(F)(F)F)cc1)C(=O)c1cc2c(cn1)nc(N)c1cnn(C)c12 [Example 574, 4-amino-N,1-dimethyl-N-(4-(pentafluoro-lambda~6~- sulfanyl)benzyl)-1H-pyrazolo[4,3-c][1,7]naphthyridine-8-carboxamide]
354 | 12 | CN(Cc1ccc(S(F)(F)(F)(F)F)cc1)C(=O)c1cc2c(cc1F)nc(N)c1cnn(C)c12 [Example 575, 4-amino-7-fluoro-N,1-dimethyl-N-(4-(pentafluoro-lambda~6~- sulfanyl)benzyl)-1H-pyrazolo[4,3-c]quinoline-8-carboxamide]
3060 | 176 | CC(C)CN(Cc1ccc(C(F)(F)F)cn1)C(=O)c1cnc2nc(N)c3c(c2c1)COC3 [Example 612, 4-amino-N-(2-methylpropyl)-N-((5-(trifluoromethyl)-2-pyridinyl)methyl)-1,3-dihydrofuro[3,4-c][1,8]naphthyridine-8-carboxamide]
761 | 23 | CC(C)CN(Cc1ccc(C(F)(F)F)cn1)C(=O)c1ccc2nc(N)c3c(c2c1)COC3 [Example 613, 4-amino-N-(2-methylpropyl)-N-((5-(trifluoromethyl)-2-pyridinyl)methyl)-1,3-dihydrofuro[3,4-c]quinoline-8-carboxamide]
271 | 19 | C[C@H](c1ncccn1)N(Cc1ccc(C#N)cn1)C(=O)c1ccc2nc(N)c3c(c2c1)CCC3 [Example 615, 4-amino-N-((5-cyano-2-pyridinyl)methyl)-N-((1R)-1-(2-pyrimidinyl)ethyl)-2,3-dihydro-1H-cyclopenta[c]quinoline-8-carboxamide]
156 | 11 | C[C@H](c1ncccn1)N(Cc1ccc(Cl)cn1)C(=O)c1ccc2nc(N)c3c(c2c1)CCC3 [Example 622, 4-amino-N-((5-chloro-2-pyridinyl)methyl)-N-((1R)-1-(2-pyrimidinyl)ethyl)-2,3-dihydro-1H-cyclopenta[c]quinoline-8-carboxamide]
